Patent publication US20230339882A1, “SHP2 INHIBITOR AND COMPOSITION AND APPLICATION THEREOF” (Betta Pharmaceuticals Co., Ltd., priority 2020, published 2023)
Read-outs that look alike come from different tables or passages of the source.

How the values were obtained:
SHP2 [1] = molecular target: T1, SHP2 (Homo sapiens (Human), UniProt Q06124); test: SHP2 allosteric inhibitory enzyme activity assay (DiFMUP fluorescence); type: biochemical; conditions: read-out: SHP2 enzymatic activity IC50
In short: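 Human SHP2 (0.2 ng) preincubated 1 h at room temperature with 25 µM activating peptide IRS1_pY1172(dPEG8)pY1222 and compound (10-point series from 10 µM) in HEPES/NaCl/KCl/BRIJ-35/EDTA/DTT buffer. DiFMUP then added for 1 h; fluorescence at ex 340/em 450 nm, normalized to no-enzyme and no-inhibitor controls, IC50 from variable-slope fit.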

hERG potassium channel [2] = molecular target: T2, hERG potassium channel (Homo sapiens (Human), UniProt Q12809); test: Patch clamp experiments on the hERG ion channel (HEK293 cells overexpressing hERG)
T2 sequence (Q12809 whole entry): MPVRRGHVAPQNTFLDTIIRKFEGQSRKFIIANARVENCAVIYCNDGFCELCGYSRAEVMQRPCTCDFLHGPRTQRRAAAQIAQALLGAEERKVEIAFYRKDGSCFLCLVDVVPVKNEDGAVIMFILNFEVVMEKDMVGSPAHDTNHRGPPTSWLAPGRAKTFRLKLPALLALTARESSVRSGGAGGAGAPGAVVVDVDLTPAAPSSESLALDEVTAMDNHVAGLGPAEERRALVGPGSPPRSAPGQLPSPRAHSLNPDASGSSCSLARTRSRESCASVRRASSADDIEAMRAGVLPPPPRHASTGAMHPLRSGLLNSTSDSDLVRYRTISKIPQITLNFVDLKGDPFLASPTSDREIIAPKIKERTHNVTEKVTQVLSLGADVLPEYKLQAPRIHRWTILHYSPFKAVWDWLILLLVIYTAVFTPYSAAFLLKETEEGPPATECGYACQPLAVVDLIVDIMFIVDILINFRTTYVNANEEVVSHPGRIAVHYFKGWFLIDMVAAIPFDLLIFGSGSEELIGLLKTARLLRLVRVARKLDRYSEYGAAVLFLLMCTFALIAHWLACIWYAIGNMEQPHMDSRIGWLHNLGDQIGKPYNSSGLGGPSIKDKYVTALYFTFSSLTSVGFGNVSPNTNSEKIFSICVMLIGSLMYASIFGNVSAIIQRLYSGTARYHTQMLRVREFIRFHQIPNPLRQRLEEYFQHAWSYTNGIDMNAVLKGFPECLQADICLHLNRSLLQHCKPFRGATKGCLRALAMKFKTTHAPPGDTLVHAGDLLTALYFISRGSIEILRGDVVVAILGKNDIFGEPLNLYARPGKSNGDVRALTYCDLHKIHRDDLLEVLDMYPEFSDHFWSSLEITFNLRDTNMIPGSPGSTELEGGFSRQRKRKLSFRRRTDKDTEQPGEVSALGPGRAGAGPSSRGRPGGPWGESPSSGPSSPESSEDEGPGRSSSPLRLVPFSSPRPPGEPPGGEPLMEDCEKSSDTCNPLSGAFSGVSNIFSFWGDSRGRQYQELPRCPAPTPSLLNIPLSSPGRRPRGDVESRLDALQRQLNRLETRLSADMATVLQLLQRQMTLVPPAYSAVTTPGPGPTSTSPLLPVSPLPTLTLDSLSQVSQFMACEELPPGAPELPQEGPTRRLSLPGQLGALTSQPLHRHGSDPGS
Method: (§10) Example C Patch Clamp Experiments to Assess the Effects of Compounds on the hERG Ion Channel
(§11) Dilute the test sample diluent in sequence with extracellular fluid to prepare detection solutions with final concentrations of 0.3 µM, 1 µM, 3 µM, 10 µM and 30 µM. The solubility of the samples to be tested was visually checked.
(§12) The cell line was derived from HEK293 cells and cultured in a 37° C., 5% CO2 incubator. In order to prevent cell senescence caused by contact inhibition, when the cell culture confluence should not exceed 80%, the cells should be passaged every ¾ days, and the inoculation density of each T175 flask should be 2*106 cells. Pre-wash with Phosphate Buffered Saline (PBS), then trypsin/EDTA for 2-3 minutes, stop digestion by adding cell culture medium, and transfer to a new culture bottle.
(§13) HEK293 cells overexpressing the hERG potassium channel were cultured overnight at a cell density below 50%. Experimental cells were transferred to a cell bath embedded in an inverted microscope stage(Diaphot, Nikon) and perfused with extracellular fluid. The extracellular fluid contained 130 mM NaCl, 4 mM KCl, 1.8 mM CaCl2, 1 mM MgCl2, 10 mM glucose and 10 mM HEPES (pH 7.4 with NaOH) at a perfusion rate of 4 ml/min. The inner tube contains 130 mM KCl, 1 mM MgCl2, 5 mM EGTA, 5 mM MgATP and 10 mM HEPES (pH 7.2 with KOH). Membrane currents were recorded using a HEKA EPC-10 patch-clamp amplifier and [sequence] acquisition system (HEKA Instruments Inc., D-67466 Lambrecht, Pfalz, Germany). All experiments were done at room temperature (22-23° C.).
(§14) Electrodes (BF150-86-10) were straightened during the experiments using a P-97 microelectrode puller (Sutter Instrument Company, One Digital Drive, Novato, CA 94949). The inner diameter of the electrode is 1-1.5 mm, and the water entry resistance after filling with internal liquid is 2-4 MΩ.
(§15) When the whole-cell seal is formed, wait for the current to stabilize for 2 minutes (the current decay is less than 5% within 5 minutes, and the tail current value is greater than500 pA). At this time, the peak value of the tail current is the control current value. The extracellular fluid containing the drug to be tested is then perfused. The same procedure was repeated 3-5 times, exposing each cell to 4-6 increasing concentrations of compounds. Blocking and deactivation of hERG during compound exposure and washout were continuously recorded.
(§16) When the whole-cell seal was formed, the cell membrane voltage was clamped at -80 mV, depolarized for 2 seconds every 12 seconds, and the clamping voltage was depolarized from -80 mV to -50 mV under a 5-second repolarization pulse of -50 mV. Measure the peak tail current.
(§17) Peak hERG tail currents were measured under a 5 s repolarization pulse of -50 mV. Each drug concentration was plotted against the current inhibition rate as a function of the logarithm of the compound concentration. The following Hill equation was used to fit a concentration-response curve to fit IC50.
(§18) Y: test value; Bottom: the lowest test value (0); Top: the highest test value (1); Hillcoefficient: the maximum absolute value of the slope of the curve.
(§19) Data are presented as mean ± standard deviation.

leukemia cells MV-4-11 = test: Cell proliferation assay, CELL TITER-GLO (CTG) luminescence, MV-4-11; type: cell-based
In short: (§1)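 NCI-H358 (2000 cells/well, ultra-low-attachment plates) and MV-4-11 cells were dosed 24 h after seeding at 1000 nM down to 0.1524 nM (3-fold steps). Viable-cell ATP was read by CellTiter-Glo luminescence after 96 h for NCI-H358 and 120 h for MV-4-11. IC50 came from a variable-slope fit of inhibition versus the 0 nM control.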

[3] = tested on: lung cancer cells NCI-H358; test: Cell proliferation assay, CELL TITER-GLO (CTG) luminescence, NCI-H358; type: cell-based; conditions: cultured for 96 hrs
In short: as §1

[4] = In vitro metabolic stability in liver microsomes, human; type: in vitro ADME; conditions: for microsomal CLint at 2 µM: pH 7.3, read-out: CLint (µL/min/mg protein) human
Method: (§2) Example D: In Vitro Metabolic Stability of Human and Rat Liver Microsomes Test Buffer Preparation
(§3) Dissolve 1900 mg of MgCl2 in 400 mL of ultrapure water.
(§4) Dissolve 17.42 g K2HPO4 and 13.65 g KH2PO4 into 1000 mL of ultrapure water, respectively. Mix a certain proportion of K2HPO4 and KH2PO4 to adjust the pH to 7.30 ± 0.10.
(§5) Prepare a solution of 10 ng/mL labetalol and 10 ng/mL glyburide in acetonitrile and store at 4° C.
(§6) Prepare 10 mM verapamil (positive control) and test article stock solutions in DMSO. Then, with MeOH/ACN/H2O solution (1:1:2 by volume), diluted to 50 µM and 200 µM working solutions, respectively.
(§7) experiment procedure: • 1) Add 40 µL MgCl2 and 306 µL PBS to 96 wells (set blank control group, positive control group, test compound sample group, and negative control group at the same time) • 2) Add 4 µL of compound working solution to each well (4 µL of PBS buffer for blank group) (Note: the final concentration of DMSO volume in the system is ≤ 0.5%) • 3) Add 10 µL of liver microsomes (concentration: 20 mg/mL) to each well, mix well, and pre-incubate at 37° C. for 10 minutes. • 4) Add 40 µL of 10 mM NADPH working solution to each well to start the reaction (add equal volume of PBS buffer for blank control group and negative control group respectively), the total reaction volume is 400 µL. • 5) Take out 50 µL samples from the above reaction solution at 0, 5, 15, and 45 minutes, and add 400 µL of reaction stop solution to stop the reaction • 6) Shake the sample after the termination of the reaction on a shaker for 5 minutes. • 7) Centrifuge the sample at 3200 rcf for 10 minutes. After the centrifugation is complete, transfer 50 µL of the supernatant to 200 µL of H2O for dilution for LC-MS/MS analysis.
(§8) Calculations of t½ and CLint are performed using the first-order kinetic equations: […]
(§9) where k represents the elimination constant, calculated from a log-linear plot of percentage remaining versus time. t½ represents half-life. Cprotein is the concentration of liver microsomes.

[5] = In vitro metabolic stability in liver microsomes, rat; type: in vitro ADME; conditions: for microsomal CLint at 2 µM: pH 7.3, read-out: CLint (µL/min/mg protein) rat
Method: as §2, §3, §4, §5, §6, §7, §8, §9

[6] = In vitro metabolic stability in liver microsomes, mouse; type: in vitro ADME; conditions: for microsomal CLint at 2 µM: pH 7.3, read-out: CLint (µL/min/mg protein) mouse
[7] = In vitro metabolic stability in liver microsomes, monkey; type: in vitro ADME; conditions: for microsomal CLint at 2 µM: pH 7.3, read-out: CLint (µL/min/mg protein) monkey
[8] = In vitro metabolic stability in liver microsomes, dog; type: in vitro ADME; conditions: for microsomal CLint at 2 µM: pH 7.3
hERG potassium channel [9] = molecular target: T2, hERG potassium channel
Method: as §10, §11, §12, §13, §14, §15, §16, §17, §18, §19

SHP2 [10] = molecular target: T1, SHP2; conditions: according to WO2019183367, cited from earlier work
[11] = read-out: hERG, patch clamp, peak tail current, HEK293
[12] = Homo sapiens, MV4-11, cultured for 120 hrs
[13] = Homo sapiens, NCI-H358, ultra-low adsorption plate

| IC50 (SHP2 [1]) | IC50 (leukemia cells MV-4-11; [12]) | IC50 [3, 13] | microsomal CLint at 2 µM [4] | microsomal CLint at 2 µM [5] | microsomal CLint at 2 µM [6] | microsomal CLint at 2 µM [7] | microsomal CLint at 2 µM ([8]; dog, microsomes) | Compound | IC50 (hERG potassium channel [2]) | IC50 (leukemia cells MV-4-11; cultured for 120 hrs) | IC50 ([3]; ultra-low adsorption plate) | IC50 (hERG potassium channel [2]; [11]) | further results |
| --- | --- | --- | --- | --- | --- | --- | --- | --- | --- | --- | --- | --- | --- |
| 35 nM | – | – | – | – | – | – | – | N[C@@H]1c2ccccc2CC12CCN(c1ncc(C#CCOc3ccncc3)nc1CO)CC2 [Compound A18, (S) - (3-(1-amino-1,3-dihydrospiro [indene-2,4′-piperidine]-1′-yl)-6-(3-(pyridin-4-oxy)prop-1-yn-1-yl)pyrazin-2-yl) methanol] | > 20000 nM | – | – | – | – |
| 2 nM | – | – | – | – | – | – | – | NC(=O)c1ccc(NCC#Cc2cnc(N3CCC4(CC3)Cc3ccccc3[C@H]4N)c(CO)n2)cc1 [Compound A48, (S)-4-((3-(5-(1-amino-1,3-dihydrospiro[indene-2,4′-piperidin]-1′-yl)-6-(hydroxymethy 1)pyrazin-2-yl)prop-2-yn-1-yl)amino)benzamide] | – | 1.7 nM | 12 nM | – | CLint (µL/min/mg protein) human [4]: 7.3 µL/min/mg protein; CLint (µL/min/mg protein) rat [5]: 15.8 µL/min/mg protein; CLint (µL/min/mg protein) mouse [6]: 15.2 µL/min/mg protein; CLint (µL/min/mg protein) monkey [7]: 8.6 µL/min/mg protein; CLint (µL/min/mg protein) dog ([8]; dog, microsomes): 26.3 µL/min/mg protein; IC50 (hERG potassium channel [9]): > 20000 nM |
| 1.1 nM | 1 nM | 5.8 nM | 10.7 µL/min/mg | 16.2 µL/min/mg | 16.8 µL/min/mg | 15.9 µL/min/mg | 14.9 µL/min/mg | NC(=O)Cc1cccc(OCC#Cc2cnc(N3CCC4(CC3)Cc3ccccc3[C@H]4N)c(CO)n2)c1 [Compound A59, (S)-2-(3-((3-(5-(1-amino-1,3-dihydrospiro[indene-2,4′-piperidin]-1′-yl)-6-(hydroxymethyl)pyrazin-2-yl)prop-2-yn-1-yl)oxy)phenyl)acetamide] | 26000 nM | – | – | – | – |
| 1.8 nM | 5.1 nM | 9.4 nM | 13 µL/min/mg | 15.9 µL/min/mg | 14.1 µL/min/mg | 6.1 µL/min/mg | 14.5 µL/min/mg | Cn1nccc1NCC#Cc1cnc(N2CCC3(CC2)Cc2ccccc2[C@H]3N)c(CO)n1 [Compound A61, (S)-(3-(1-amino-1,3-dihydrospiro[indene-2,4′-piperidin]-1′-yl)-6-(3-((1-methyl-1H-pyrazol-5-yl)amino)prop-1-yn-1-yl)pyrazin-2-yl)methanol] | – | – | – | – | – |
| 1.5 nM | 14 nM | 56 nM | 2.6 µL/min/mg | 8.1 µL/min/mg | 9.7 µL/min/mg | 19.2 µL/min/mg | 2.9 µL/min/mg | NC(=O)c1ccc(OCC#Cc2cnc(N3CCC4(CC3)Cc3ccccc3[C@H]4N)cn2)cc1Cl [Compound A62, (S)-4-((3-(5-(1-amino-1,3-dihydrospiro[inden-2,4′-piperidin]-1′-yl)pyrazin-2-yl)prop-2-yn-1-yl)oxy)-2-chlorobenzamide] | – | – | – | – | – |
| 2.9 nM | 2.3 nM | 4.3 nM | – | – | – | – | – | NC(=O)Cc1ccc(OCC#Cc2cnc(N3CCC4(CC3)Cc3ccccc3[C@H]4N)c(CO)n2)cc1 [Compound A71, (S)-2-(4-((3-(5-(1-amino-1,3-dihydrospiro[indene-2,4′-piperidin]-1′-yl)-6-(hydroxylmethyl)pyrazin-2-yl)prop-2-yn-1-yl)oxy)phenyl)ace tamide] | > 20000 nM | – | – | – | – |
| – | – | – | – | – | – | – | – | N[C@@H]1c2ccccc2CC12CCN(c1ncc(Sc3ccnc(Cl)c3Cl)nc1CO)CC2 [compound 243] | – | – | – | – | IC50 (SHP2 [10]; read-out: IC50 in the SHP2 allosteric inhibition test (lower bound)): > 50 nM; IC50 (SHP2 [10]; read-out: IC50 in the SHP2 allosteric inhibition test (upper bound)): ≤ 1000 nM |

| Compound | IC50 (SHP2 [1]) | IC50 (leukemia cells MV-4-11; [12]) | IC50 [3, 13] | microsomal CLint at 2 µM [4] | microsomal CLint at 2 µM [5] | microsomal CLint at 2 µM [6] | microsomal CLint at 2 µM [7] | microsomal CLint at 2 µM ([8]; dog, microsomes) | IC50 (hERG potassium channel [2]) | IC50 (leukemia cells MV-4-11; cultured for 120 hrs) | IC50 ([3]; ultra-low adsorption plate) | IC50 (hERG potassium channel [2]; [11]) | further results |
| --- | --- | --- | --- | --- | --- | --- | --- | --- | --- | --- | --- | --- | --- |
| N[C@@H]1c2ccccc2CC12CCN(c1ncc(C#CCOc3ccc(S(N)(=O)=O)cc3)nc1CO)CC2 [Compound A32, (S)-4-((3-(5-(1-amino-1,3-dihydrospiro[indene-2,4′-piperidin]-1′-yl)-6-(hydroxymethy 1)pyrazin-2-yl)prop-2-yn-1-yl)oxy)benzenesulfonamide] | 1.3 nM | – | – | – | – | – | – | – | – | 3.4 nM | 9 nM | > 20000 nM | CLint (µL/min/mg protein) human [4]: 2.2 µL/min/mg protein; CLint (µL/min/mg protein) rat [5]: 14.7 µL/min/mg protein; CLint (µL/min/mg protein) mouse [6]: 10.6 µL/min/mg protein; CLint (µL/min/mg protein) monkey [7]: 10.1 µL/min/mg protein; CLint (µL/min/mg protein) dog ([8]; dog liver microsomes): 1.9 µL/min/mg protein |
| CC(=O)Nc1cccc(OCC#Cc2cnc(N3CCC4(CC3)Cc3ccccc3[C@H]4N)c(C(N)=O)n2)c1 [Compound A41] | 14 nM | – | – | – | – | – | – | – | – | – | – | > 20000 nM | – |
| CP(C)(=O)c1ccc(OCC#Cc2cnc(N3CCC4(CC3)Cc3ccccc3[C@H]4N)c(CO)n2)cc1 [Compound A57] | 4.3 nM | – | – | – | – | – | – | – | – | 10 nM | 22 nM | > 20000 nM | – |
